Measurements reported in patent US6737383B1, “Herbicidal oxadiazolidines” (priority 1999, dated 2004).

Legend:
soybean = test: Test B pre/postemergence soybean; format: in vivo, Glycine max
Summary of the method: (§1)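 Test chemicals in a non-phytotoxic solvent mixture with surfactant were sprayed preemergence onto planted seeds and postemergence onto plants 2 to 18 cm tall (1- to 4-leaf stage). After twelve to sixteen days in a greenhouse, injury was visually rated against untreated controls from 0 (no effect) to 10 (complete control).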

smallflower flatsedge = test: Test B flood test smallflower flatsedge; format: in vivo, Cyperus difformis
Summary of the method: (§2)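 Flood test on plants grown to the 2-leaf stage; treated plants kept in greenhouse twelve to sixteen days, then visually rated against controls on a 0 (no effect) to 10 (complete control) scale.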

blackgrass = test: Test B pre/postemergence blackgrass; format: in vivo, Alopecurus myosuroides
Summary of the method: as §1

duck salad = test: Test B flood test duck salad; format: in vivo, Heteranthera limosa
Summary of the method: as §2

velvetleaf = test: Test B pre/postemergence velvetleaf; format: in vivo, Abutilon theophrasti
Summary of the method: as §1

cocklebur = test: Test B pre/postemergence cocklebur; format: in vivo, Xanthium strumarium
Summary of the method: as §1

giant foxtail = test: Test B pre/postemergence giant foxtail; format: in vivo, Setaria faberii
Summary of the method: as §1

crabgrass = test: Test B pre/postemergence crabgrass; format: in vivo, Digitaria sanguinalis
Summary of the method: as §1

pigweed = test: Test B pre/postemergence pigweed; format: in vivo, Amaranthus retroflexus
Summary of the method: as §1

rice = test: Test B flood test rice; format: in vivo, Oryza sativa
Summary of the method: as §2

wheat = test: Test B pre/postemergence wheat; format: in vivo, Triticum aestivum
Summary of the method: as §1

surinam grass = test: Test B pre/postemergence surinam grass; format: in vivo, Brachiaria decumbens
Summary of the method: as §1

rape = test: Test B pre/postemergence rape; format: in vivo, Brassica napus
Summary of the method: as §1

bamyardgrass = test: Test B flood test barnyardgrass; format: in vivo, Echinochloa crus-galli
Summary of the method: as §2

corn = test: Test B pre/postemergence corn; format: in vivo, Zea mays
Summary of the method: as §1

wild oat = test: Test B pre/postemergence wild oat; format: in vivo, Avena fatua
Summary of the method: as §1

sugar beet = test: Test B pre/postemergence sugar beet; format: in vivo, Beta vulgaris
Summary of the method: as §1

morningglory = test: Test B pre/postemergence morningglory; format: in vivo, Ipomoea hederacea
Summary of the method: as §1

purple nutsedge = test: Test B pre/postemergence purple nutsedge; format: in vivo, Cyperus rotundus
Summary of the method: as §1

[1] = Postemergence, Rate 125 g/ha, scale 0 to 10, 0 is no effect, 10 is complete control
[2] = Postemergence, Rate 500 g/ha, scale 0 to 10, 0 is no effect, 10 is complete control
[3] = Preemergence, Rate 62 g/ha, scale of 0 to 10 where 0 is no effect and 10 is complete control
[4] = Preemergence, Rate 125 g/ha, scale 0 to 10, 0 is no effect, 10 is complete control
[5] = Preemergence, Rate 500 g/ha, scale of 0 to 10 where 0 is no effect and 10 is complete control
[6] = Rate 62 g/ha, Postemergence, scale 0 to 10, 0 no effect, 10 complete control
[7] = Rate 62 g/ha, flood test species, Pre-emergence, visual evaluation after twelve to sixteen days
[8] = Rate 125 g/ha, under heading Pre-emergence, flood test species, visual evaluation after twelve to sixteen days
[9] = Rate 250 g/ha, Pre-emergence (flood test species), scale 0 to 10, 0 is no effect, 10 is complete control
[10] = Rate 500 g/ha, Pre-emergence section of Table B, 0 to 10 scale (0 no effect, 10 complete control)
[11] = Preemergence, Rate 250 g/ha, scale 0 to 10, 0 is no effect, 10 is complete control
[12] = Postemergence, Rate 250 g/ha, scale 0 to 10

C=C(Cn1c(=O)on(C(=O)N(c2ccccc2)C(C)C)c1=O)c1cccnc1 [Compound 498]
Soybean plant response rating (soybean; [1]): 1 | Plant response rating, Soybean (soybean; [2]): 1 | Plant response rating, Soybean (soybean; [3]): 0 | Soybean plant response rating (soybean; [4]): 0 | Soybean plant response rating (soybean; [5]): 0 | Soybean plant response rating (soybean; [6]): 1 | Plant response rating, S. Flatsedge (0 to 10 scale, 0 is no effect, 10 is complete control) (smallflower flatsedge; [7]): 0 | S. Flatsedge plant response rating (0 to 10 scale, 0 is no effect, 10 is complete control) (smallflower flatsedge; [8]): 0 | S. Flatsedge plant response rating (smallflower flatsedge; [9]): 0 | S. Flatsedge plant response rating (smallflower flatsedge; [10]): 0 | Blackgrass plant response rating (blackgrass; [1]): 0 | Plant response rating, Blackgrass (blackgrass; [2]): 5 | Plant response rating, Blackgrass (blackgrass; [3]): 0 | Blackgrass plant response rating (blackgrass; [4]): 0 | Blackgrass plant response rating (blackgrass; [11]): 0 | Blackgrass plant response rating (blackgrass; [5]): 0 | Blackgrass plant response rating (blackgrass; [6]): 0 | Plant response rating, Ducksalad (0 to 10 scale, 0 is no effect, 10 is complete control) (duck salad; [7]): 0 | Ducksalad plant response rating (0 to 10 scale, 0 is no effect, 10 is complete control) (duck salad; [8]): 0 | Ducksalad plant response rating (duck salad; [9]): 0 | Ducksalad plant response rating (duck salad; [10]): 0 | Velvetleaf plant response rating (velvetleaf; [1]): 0 | Plant response rating, Velvetleaf (velvetleaf; [2]): 2 | Plant response rating, Velvetleaf (velvetleaf; [3]): 0 | Velvetleaf plant response rating (velvetleaf; [4]): 0 | Velvetleaf plant response rating (velvetleaf; [5]): 0 | Velvetleaf plant response rating (velvetleaf; [6]): 0 | Cocklebur plant response rating (cocklebur; [1]): 0 | Cocklebur plant response rating (cocklebur; [12]): 0 | Plant response rating, Cocklebur (cocklebur; [2]): 0 | Plant response rating, Cocklebur (cocklebur; [3]): 0 | Cocklebur plant response rating (cocklebur; [4]): 0 | Cocklebur plant response rating (cocklebur; [11]): 0 | Cocklebur plant response rating (cocklebur; [5]): 0 | Cocklebur plant response rating (cocklebur; [6]): 0 | Giant foxtail plant response rating (giant foxtail; [1]): 2 | Plant response rating, Giant foxtail (giant foxtail; [2]): 3 | Plant response rating, Giant foxtail (giant foxtail; [3]): 0 | Giant foxtail plant response rating (giant foxtail; [4]): 2 | Giant foxtail plant response rating (giant foxtail; [5]): 8 | Giant foxtail plant response rating (giant foxtail; [6]): 0 | Crabgrass plant response rating (crabgrass; [12]): 0 | Plant response rating, Crabgrass (crabgrass; [2]): 2 | Plant response rating, Crabgrass (crabgrass; [3]): 0 | Crabgrass plant response rating (crabgrass; [4]): 2 | Crabgrass plant response rating (crabgrass; [5]): 5 | Crabgrass plant response rating (crabgrass; [6]): 0 | Redroot pigweed plant response rating (pigweed; [1]): 0 | Plant response rating, Redroot pigweed (pigweed; [2]): 0 | Plant response rating, Redroot pigweed (pigweed; [3]): 0 | Redroot pigweed plant response rating (pigweed; [4]): 0 | Redroot pigweed plant response rating (pigweed; [5]): 0 | Redroot pigweed plant response rating (pigweed; [6]): 0 | Plant response rating, Rice (0 to 10 scale, 0 is no effect, 10 is complete control) (rice; [7]): 0 | Rice plant response rating (0 to 10 scale, 0 is no effect, 10 is complete control) (rice; [8]): 0 | Rice plant response rating (rice; [9]): 0 | Rice plant response rating (rice; [10]): 0 | Wheat plant response rating (wheat; [1]): 0 | Plant response rating, Wheat (wheat; [2]): 0 | Plant response rating, Wheat (wheat; [3]): 0 | Wheat plant response rating (wheat; [4]): 0 | Wheat plant response rating (wheat; [5]): 0 | Wheat plant response rating (wheat; [6]): 0 | B. signalgrass plant response rating (surinam grass; [1]): 0 | B. signalgrass plant response rating (surinam grass; Postemergence, Rate 250 g/ha, scale 0 to 10, 0 no effect, 10 complete control): 0 | Plant response rating, B. signalgrass (surinam grass; [2]): 0 | Plant response rating, B. signalgrass (surinam grass; [3]): 0 | B. signalgrass plant response rating (surinam grass; [4]): 0 | B. signalgrass plant response rating (surinam grass; [11]): 0 | B. signalgrass plant response rating (surinam grass; Preemergence, Rate 500 g/ha, scale 0 to 10, 0 is no effect, 10 is complete control): 0 | B. signalgrass plant response rating (surinam grass; [6]): 0 | Rape plant response rating (rape; [1]): 0 | Plant response rating, Rape (rape; [2]): 0 | Plant response rating, Rape (rape; [3]): 0 | Rape plant response rating (rape; [4]): 0 | Rape plant response rating (rape; [5]): 0 | Rape plant response rating (rape; [6]): 0 | Plant response rating, Barnyardgrass (0 to 10 scale, 0 is no effect, 10 is complete control) (bamyardgrass; [7]): 0 | Barnyardgrass plant response rating (0 to 10 scale, 0 is no effect, 10 is complete control) (bamyardgrass; [8]): 0 | Barnyardgrass plant response rating (bamyardgrass; [9]): 0 | Barnyardgrass plant response rating (bamyardgrass; [10]): 0 | Corn plant response rating (corn; [1]): 0 | Corn plant response rating (corn; [12]): 0 | Plant response rating, Corn (corn; [2]): 0 | Plant response rating, Corn (corn; [3]): 0 | Corn plant response rating (corn; [4]): 0 | Corn plant response rating (corn; [5]): 0 | Corn plant response rating (corn; [6]): 0 | Wild oats plant response rating (wild oat; [1]): 0 | Plant response rating, Wild oats (wild oat; [2]): 0 | Plant response rating, Wild oats (wild oat; [3]): 0 | Wild oats plant response rating (wild oat; [4]): 0 | Wild oats plant response rating (wild oat; [5]): 0 | Wild oats plant response rating (wild oat; [6]): 0 | Sugarbeets plant response rating (sugar beet; [1]): 0 | Plant response rating, Sugarbeets (sugar beet; [2]): 0 | Plant response rating, Sugarbeets (sugar beet; [3]): 0 | Sugarbeets plant response rating (sugar beet; [4]): 0 | Sugarbeets plant response rating (sugar beet; [5]): 0 | Sugarbeets plant response rating (sugar beet; [6]): 0 | Morningglory plant response rating (morningglory; [1]): 3 | Plant response rating, Morningglory (morningglory; [2]): 4 | Plant response rating, Morningglory (morningglory; [3]): 0 | Morningglory plant response rating (morningglory; [4]): 0 | Morningglory plant response rating (morningglory; [5]): 0 | Morningglory plant response rating (morningglory; [6]): 1 | Nutsedge plant response rating (purple nutsedge; [1]): 0 | Plant response rating, Nutsedge (purple nutsedge; [2]): 0 | Plant response rating, Nutsedge (purple nutsedge; [3]): 0 | Nutsedge plant response rating (purple nutsedge; [4]): 0 | Nutsedge plant response rating (purple nutsedge; [5]): 0 | Nutsedge plant response rating (purple nutsedge; [6]): 0
